Data: the NIST ThermoML archive (doi:10.1021/je300377a)
± gives the expanded uncertainty stated by the source.

Assay: molar heat capacity at constant pressure
Conditions: 101.33 kPa, Liquid

| SMILES | molar heat capacity at constant pressure (275 K) [J/K/mol] | molar heat capacity at constant pressure (285.01 K) [J/K/mol] | molar heat capacity at constant pressure (295.01 K) [J/K/mol] | molar heat capacity at constant pressure (335.02 K) [J/K/mol] | molar heat capacity at constant pressure (345.02 K) [J/K/mol] | molar heat capacity at constant pressure (355.01 K) [J/K/mol] | molar heat capacity at constant pressure (375.01 K) [J/K/mol] | molar heat capacity at constant pressure (265.04 K) [J/K/mol] | molar heat capacity at constant pressure (275.12 K) [J/K/mol] | molar heat capacity at constant pressure (295.03 K) [J/K/mol] | molar heat capacity at constant pressure (305.03 K) [J/K/mol] | molar heat capacity at constant pressure (315.07 K) [J/K/mol] | molar heat capacity at constant pressure (325.13 K) [J/K/mol] | molar heat capacity at constant pressure (355 K) [J/K/mol] | molar heat capacity at constant pressure (365.05 K) [J/K/mol] | molar heat capacity at constant pressure (375.09 K) [J/K/mol] | molar heat capacity at constant pressure (335.04 K) [J/K/mol] | molar heat capacity at constant pressure (345.11 K) [J/K/mol] | molar heat capacity at constant pressure (385.14 K) [J/K/mol] | also measured |
| --- | --- | --- | --- | --- | --- | --- | --- | --- | --- | --- | --- | --- | --- | --- | --- | --- | --- | --- | --- | --- |
| CCCCCCCC[N+]1(CC)CCCCC1.O=S(=O)([N-]S(=O)(=O)C(F)(F)F)C(F)(F)F | 719.33 ± 350 | 730.47 ± 350 | 743.64 ± 360 | 814.56 ± 390 | 829.25 ± 400 | 844.96 ± 410 | 882.44 ± 420 | – | – | – | – | – | – | – | – | – | – | – | – | molar heat capacity at constant pressure (265.01 K): 703.63 ± 340 J/K/mol; molar heat capacity at constant pressure (305.01 K): 763.4 ± 370 J/K/mol; molar heat capacity at constant pressure (315.01 K): 782.14 ± 380 J/K/mol; molar heat capacity at constant pressure (325.01 K): 799.37 ± 380 J/K/mol; molar heat capacity at constant pressure (365 K): 868.26 ± 420 J/K/mol; molar heat capacity at constant pressure (385.02 K): 903.72 ± 430 J/K/mol |
| CCCCCCCCn1cc[n+](C)c1.O=S(=O)([N-]S(=O)(=O)C(F)(F)F)C(F)(F)F | 628.1 ± 300 | 636.18 ± 310 | 643.79 ± 310 | 675.65 ± 320 | 684.21 ± 330 | – | 720.34 ± 350 | – | – | – | – | – | – | – | – | – | – | – | – | molar heat capacity at constant pressure (265.02 K): 621.44 ± 300 J/K/mol; molar heat capacity at constant pressure (305.02 K): 651.87 ± 310 J/K/mol; molar heat capacity at constant pressure (315.02 K): 660.43 ± 320 J/K/mol; molar heat capacity at constant pressure (325.02 K): 668.51 ± 320 J/K/mol; molar heat capacity at constant pressure (355.02 K): 694.67 ± 330 J/K/mol; molar heat capacity at constant pressure (360 K): 706.08 ± 340 J/K/mol; molar heat capacity at constant pressure (385.03 K): 737.93 ± 350 J/K/mol |
| CCCCCCCC[n+]1ccccc1.O=S(=O)([N-]S(=O)(=O)C(F)(F)F)C(F)(F)F [1-octylpyridinium bis((trifluoromethyl)sulfonyl)amide] | – | – | – | – | – | – | – | 582.55 ± 280 | 597.2 ± 290 | 620.82 ± 300 | 636.89 ± 310 | 652.95 ± 310 | 669.02 ± 320 | 707.76 ± 340 | 721.93 ± 350 | 738.47 ± 350 | – | – | – | molar heat capacity at constant pressure (285.05 K): 609.01 ± 290 J/K/mol; molar heat capacity at constant pressure (335.03 K): 681.77 ± 330 J/K/mol; molar heat capacity at constant pressure (345.1 K): 694.53 ± 330 J/K/mol; molar heat capacity at constant pressure (385.13 K): 755.95 ± 360 J/K/mol |
| CCCCCCCC[N+]1(C)CCCC1.O=S(=O)([N-]S(=O)(=O)C(F)(F)F)C(F)(F)F | – | – | – | – | – | 700.55 ± 340 | 721.6 ± 350 | – | – | – | – | 658.44 ± 320 | – | – | 711.08 ± 340 | – | 679.49 ± 330 | 690.02 ± 330 | 732.13 ± 350 | molar heat capacity at constant pressure (265.06 K): 605.8 ± 290 J/K/mol; molar heat capacity at constant pressure (275.13 K): 616.33 ± 300 J/K/mol; molar heat capacity at constant pressure (285.07 K): 626.86 ± 300 J/K/mol; molar heat capacity at constant pressure (295.04 K): 636.43 ± 310 J/K/mol; molar heat capacity at constant pressure (305.04 K): 647.91 ± 310 J/K/mol; molar heat capacity at constant pressure (325.14 K): 668.97 ± 320 J/K/mol |
| CCCC[N+]1(C)CCCC1.O=S(=O)([N-]S(=O)(=O)C(F)(F)F)C(F)(F)F | – | – | – | – | – | – | – | 472.25 ± 230 | 484.93 ± 230 | 498.44 ± 240 | 507.31 ± 240 | 515.76 ± 250 | 524.63 ± 250 | 547.87 ± 260 | 554.62 ± 270 | 563.07 ± 270 | 531.39 ± 260 | 539.84 ± 260 | 576.17 ± 280 | molar heat capacity at constant pressure (285.06 K): 492.11 ± 240 J/K/mol |
